The source of these data is US11339184B2, “Antibacterial compounds, compositions thereof, and methods using same” (priority 2019, dated 2022).

One experiment relates to M. tuberculosis H37rv. Nature of the experiment: Antibiotic assay against M. tuberculosis (MIC / IC90). To be noted: for IC90: H37Rv. The class given is cell-based, Mycobacterium tuberculosis.
Another experiment relates to M. abscessus. Nature of the experiment: MIC against other mycobacteria: M. abscessus. Format: cell-based. The following applies: Table 3, M. abscessus.
The subject of the next experiment is M. avium. The experiment is described as follows: MIC against other mycobacteria: M. avium. The class given is cell-based. The following applies: Table 3, M. avium.
A further experiment concerns M. marinum. Nature of the experiment: MIC against other mycobacteria: M. marinum. To be noted: Table 3, M. marinum. The class given is cell-based.
A further experiment deals with M. smegmatis. The experiment is described as follows: MIC against other mycobacteria: M. smegmatis. Format: cell-based. To be noted: Table 3, M. smegmatis.
The subject of experiment [1] is Gram-positive bacteria, including Staphylococcus aureus, Staphylococcus epidermidis, Listeria monocytogenes and M. tuberculosis. Format: cell-based.
Where [2] appears, read: Table 4, Formula III derivatives, M. tuberculosis H37rv.

In brackets after ≈: the same amount, converted by molar mass. Read-outs that look alike come from different tables or passages of the source. Some results are limits rather than exact numbers.

Consider `CO[C@H]1/C=C/O[C@@]2(C)Oc3c(C)c(O)c4c(O)c(c(/C=N/N5CCN(C)CC5)c(O)c4c3C2=O)NC(=O)/C(C)=C\C=C\[C@H](C)[C@H](O)[C@@H](C)[C@@H](O)[C@@H](C)[C@H](OC(C)=O)[C@@H]1C` [Rif, rifampicin], for which the MIC with M. tuberculosis H37rv is 0.05 µg/mL (≈ 0.0608 µM); in the experiment on M. tuberculosis H37rv (Table 3, M. tuberculosis H37rv, Trial 2), 0.31 µg/mL (≈ 0.377 µM); in the experiment with M. tuberculosis H37rv (Table 3, M. tuberculosis H37rv, Trial 3), 0.31 µg/mL (≈ 0.377 µM); against M. tuberculosis H37rv (Table 3, M. tuberculosis H37rv, Trial 4), 0.31 µg/mL (≈ 0.377 µM); with M. tuberculosis H37rv (setting [2]), < 0.02 µg/mL; against M. abscessus, > 25 µg/mL. Moreover, the minimal inhibitory concentration (MIC) against M. avium was < 0.195 µg/mL; in the experiment with M. marinum it was > 25 µg/mL; in the experiment on M. smegmatis, > 25 µg/mL.

Compound `CC(=O)OC1C(C)C(OC2CC3OCOC3C(C)O2)/C=C/OC2(C)OC3=C(C)C(=O)c4c(O)c(cc5c4C3=C2OCO5)NC(=O)/C(C)=C\C=C\C(C(C)OC(=O)C(C)(C)CC(=O)O)C(O)C(C)C(O)C1C` (centres unmarked) [kanglemycin V2] gave an IC90 with M. tuberculosis H37rv of 1560 nM. In addition, in the experiment on M. tuberculosis H37rv (setting [2]), the minimal inhibitory concentration (MIC) worked out at 0.08 µg/mL (≈ 0.0803 µM). Moreover, the “activity as antibiotics against Gram-positive bacteria” value in experiment [1] is “active”.

In turn, `CC(=O)OC1C(C)C(OC2CC3OCOC3C(C)O2)/C=C/OC2(C)CC(O)c3c(c(C)c(O)c4c3C(=O)C=C(NC(=O)/C(C)=C\C=C\C(C(C)OC(=O)C(C)(C)CC(=O)O)C(O)C(C)C(O)C1C)C4=O)O2` (centres unmarked) [kanglemycin V1] showed a concentration for an effect of 90% (IC90) in the experiment with M. tuberculosis H37rv of 3120 nM. In experiment [1], the “activity as antibiotics against Gram-positive bacteria” value was “active”.

A word on the MIC: it is the smallest concentration in the dilution series that meets the test's criterion for growth inhibition. The low end stands for greater potency, the high end for weaker potency. For orientation: IC90 means the point of the concentration-response curve where the effect stands at 90%. Low values mean an effect from little substance, high ones a need for much substance.
